Results published in patent US20250127896A1, “CHIMERIC TIM4 RECEPTORS AND USES THEREOF” (CERO THERAPEUTICS HOLDINGS, INC., priority 2021, published 2025).

Assays:
[1] = system: E7 TCR T cells; test: APC-like function after co-culture with PS-positive E7-positive SCC152 cells: HLA-DR/CD25 on E7 TCR T cells; type: cell-based; settings: for antigen presentation function versus untransduced T cells: FIG. 52, FIG. 53; for activation (HLA-DR) of autologous E7 TCR T cells: after co-culture with E7-positive/PS-positive SCC152 cells, vs untransduced T cells or anti-CD19 CAR T cells; for antigen presentation function, overall (FIGS. 50-54): repeated experiments
Excerpt: (§1) FIGS. 25A-25B: CER1236 T cells activate E7 TCR T cells via presentation of tumor cell-derived E7 antigen in an HLA-I-dependent manner. […] FIG. 25B: In a separate experiment, induction of HLA-DR on E7 TCR cells following co-culture of CER-1236 with E7 oncoprotein positive/PS-positive SCC152 cells was blocked by HLA-I blocking antibody, but not a control isotype antibody. Bars depict percentage of E7 TCR T cells that express the activation marker, HLA-DR. Error bars show SEM.
as §1, with “36A-36B:” for “25A-25B:”, “6B:” for “25B:”
(§2) CER1183, CER1161, CER1234 or CER1236 T cells were cultured alone or co-cultured with phosphatidylserine-positive HPV E7 oncoprotein-positive cells (TMEM30A−/− SCC152) for 48 hours, followed by positive selection of T cells and co-culture for a 4 days with cell trace violet labeled-HPV E7 TCR T cells.
as §2, with “(TMEM30A−/−SCC152)” for “(TMEM30A−/− SCC152)”, “for” for “for a”, “days (FIG. 51, left graph) or 6 days (FIG. 51, right graph)” for “days”
CER1183, CER1161, CER1234 or CER1236 T cells were cultured alone or co-cultured with phosphatidylserine-positive HPV E7 oncoprotein-positive cells (TMEM30A−/− SCC152) for 48 hours, followed by positive selection of T cells and co-culture for 4 days with cell trace violet labeled-HPV E7 TCR T cells.
CER1183, CER1161, CER1234 or CER1236 T cells were cultured alone or co-cultured with phosphatidylserine-positive HPV E7 oncoprotein-positive cells (TMEM30A−/−SCC152) for 48 hours, followed by positive selection of T cells and co-culture for 6 days with cell trace violet labeled-HPV E7 TCR T cells.
Antigen-presenting cell (APC)-like function of CER T cells was assessed after a 48-hour co-culture with phosphatidylserine-positive E7 oncoprotein-positive cells. T cells were separated and co-cultured for 4 days with cell trace violet-labeled E7 TCR T cells. The activation marker HLA-DR on E7 TCR T cells was analyzed using flow cytometry. Phosphatidylserine-positive SCC152 squamous cell carcinoma cells were engineered by knockout of the TMEM30A gene (a flippase chaperone required for PS internalization). The role of HLA-I in APC-like function was determined by performing the same experiment in the presence of HLA-I blocking or the corresponding isotype antibodies.
Phosphatidylserine exposure on A2780 ovarian cancer cells upon treatment with the small molecule PARP inhibitors niraparib or olaparib was evaluated by annexin v staining to determine the appropriate drug dose. Phosphatidylserine targeting Tim-4 CER constructs designed to enhance cytotoxicity and target-dependent tumor cell fragment uptake were engineered. CER T cell designs were as follows: CER-1234 (Tim-4/CD28/TLR2/CD3z; SEQ ID NO:18); CER-1236 (Tim-4/CD28/CD3z/TLR2; SEQ ID NO:19); and CER-1250 (Tim-4 binding mutant/CD28/TLR2/CD3z; SEQ ID NO:24). CER-1250 has the same intracellular signaling domains as […] but has a mutated IgV domain with AAAA substitution to abrogate phosphatidylserine binding. Niraparib (0.5 μM) and olaparib (1.5 μM) were used to expose phosphatidylserine on the surface of A2780 cells for CER T cell recognition and cytotoxicity, T-cell activation, and cytokine responses were evaluated. Uptake of antigen by CER-1236 T cells was modeled with human papilloma virus E7 antigen-expressing squamous carcinoma (SCC152) TMEM30A phospholipid flippase knockout cells. […]

[2] = system: A2780 cells; settings: for A2780 cells eliminated, single agent: compared to untreated; for A2780 cells eliminated, combination with niraparib: niraparib 0.5 μM; for A2780 cells eliminated, combination with niraparib / A2780 cells eliminated, combination with olaparib: after 5 days of co-culture; for A2780 cells eliminated, combination with olaparib: olaparib 1.5 μM
Experimental: FIG. 34B: At 120 hours, the ratio of cells remaining in treated samples compared to untreated A2780 samples was quantified using the incucyte data from FIG. 34A. FIG. 34C: Proliferation of CER T cells in co-culture assays.
At day 0, media was exchanged and donor T cells from three subjects (FIG. 28) transduced with CER-1234, CER-1236, or control CER-1183 (FIG. 27A) were added at various effector:target ratios to A2780 cells treated with PARPi to assess chimeric Tim4 receptor-T cell activation, cytokine production, proliferation, and cytotoxic responses. Chimeric Tim4 receptor-T cells immunophenotyping and bulk supernatant analysis was performed on day 2 and day 5 following initiation of co-culture.
CER T-cell cytotoxic function was evaluated using the Incucyte® live-cell analysis system in co-culture assays with A2780 cells. A2780 cells engineered to constitutively express mCherry were pretreated with 1.5 μM olaparib, 0.5 μM niraparib or no drug for 96 hours. CER T cells (expanded for 6 days after transduction) in T-cell optimizer media containing IL-2, IL-7, and IL-15 were co-cultured with A2780 cells at an effector:target (E:T) ratio of 1:2 in the presence of the same concentrations of olaparib or niraparib.

Substance | HLA-DR MFI versus untransduced T cells ([1]; FIG. 50, FIG. 51, FIG. 54) | antigen presentation function versus untransduced T cells [1] | HLA class I dependence of E7 TCR activation ([1]; HLA-I blocking vs isotype antibody) | activation (HLA-DR) of autologous E7 TCR T cells [1] | activation (HLA-DR) of autologous E7 TCR T cells ([1]; listed as CER1236) | increase of activation status of E7 TCR T cells ([1]; exposed to TMEM30A″ SCC152 cancer cells relative to CER-1236 T cells alone) | antigen presentation function, overall (FIGS. 50-54) [1] | cytotoxic activity of CER T cells alone against A2780 cells [2] | A2780 cells eliminated, single agent [2] | A2780 cells eliminated, combination with niraparib [2] | A2780 cells eliminated, combination with olaparib [2]
CER-1236: chimeric Tim4 receptor: Tim4 binding domain-CD28tm-CD28-CD3z-TLR2 TIR, SEQ ID NO:19; tested as transduced T cells | significant difference in HLA-DR MFI | display better antigen presentation function than untransduced T cells | dependent on antigen presentation via the HLA class I system | induced HLA-DR on E7 TCR cells | supported greater activation of autologous E7 TCR T cells | 5 fold | consistently had better antigen presentation function compared to untransduced T cells | limited cytotoxic activity | 19% | 81% | 73%
CER-1234: chimeric Tim4 receptor: Tim4 binding domain-CD28tm-CD28-TLR2 TIR-CD3z, SEQ ID NO:18; tested as transduced T cells | – | display better antigen presentation function than untransduced T cells | – | – | – | – | did not show any antigen presentation function over untransduced T cells in some experiments | limited cytotoxic activity | 39% | 58% | 66%
